# Target: T1, hen egg lysozyme (Gallus gallus, UniProt P00698)
# T1 construct: from tissue; host or cells: hen egg
# Assay: lysozyme denaturation/stabilization test: lysozyme activity on M. luteus suspension, optical density at 450nm
# Assay type: biochemical
# Conditions: Table 1, saline + 20 mM buffering agent
# Description: Each solution included saline and 20 mM of buffering agent as specified in Table 1 below. To each test solution was added 1 mg/ml of hen egg lysozyme as well as a phosphate buffered saline (PBS) control. The test solutions were mixed slowly with a stir bar until the lysozyme was incorporated into the solutions. Five ml of each lysozyme-containing test solution was retained as the unheated control. The remaining 5 ml of each lysozyme-containing test solution were placed in glass less vials, capped with silicone stoppers and incubated in a shaking water bath at 80° C. 40 revolutions per minute (rpm) for 1 hour—these heating conditions are sufficient to denature the lysozyme, absent a stabilization effect provided by the buffering agents. The vials were allowed to come to ambient temperature before testing. A 0.00025 g/ml suspension of M. luteus was prepared from lyophilized cells in PBS. The suspension was continually mixed on a stir plate during the testing period to prevent the suspension from settling. For each set of test solutions, the following were tested (sample): a heated lysozyme-containing test solution (“lysozyme+heat”); an unheated lysozyme-containing test solution (“lysozyme/no heat”; and a test solution without lysozyme (“no lysozyme”). One ml of each sample was placed into a glass test tube to which 9 ml of M. luteus suspension was added and vortexed. A 1-ml sub sample was placed into a disposable cuvette and evaluated on a UV-vis spectrophotometer at 450nm. […] Each of the solutions were evaluated in triplicate. Each of the three optical density measurements from the triplicate samples were averaged.
# [1] = lysozyme + heat (80° C., 1 hour)
# [2] = lysozyme/no heat, 1 mg/ml lysozyme
# T1 sequence (P00698 19-147): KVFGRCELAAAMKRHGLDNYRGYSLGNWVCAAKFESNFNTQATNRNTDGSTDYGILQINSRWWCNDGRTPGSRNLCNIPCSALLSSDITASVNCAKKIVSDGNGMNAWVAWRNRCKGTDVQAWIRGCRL
"Time 0 Min (optical density, 450nm) [1]",Percent Change 5 Min [1],"Time 5 Min (optical density, 450nm) [1]",Percent Change 10 Min [1],"Time 10 Min (optical density, 450nm) [1]","Time 0 Min (optical density, 450nm) [2]",Percent Change 5 Min (lysozyme/no heat),"Time 5 Min (optical density, 450nm) (lysozyme/no heat)",Percent Change 10 Min (lysozyme/no heat),"Time 10 Min (optical density, 450nm) (lysozyme/no heat)","Time 0 Min (optical density, 450nm) (no lysozyme)",Percent Change 5 Min (no lysozyme),"Time 5 Min (optical density, 450nm) (no lysozyme)",Percent Change 10 Min (no lysozyme),"Time 10 Min (optical density, 450nm) (no lysozyme)",Compound
0.877,2.96%,0.851,10.49%,0.785,0.654,92.51%,0.049,95.41%,0.030,0.857,0.82%,0.850,0.82%,0.850,O=C(O)CC(O)(CC(=O)O)C(=O)O [Citrate]
0.810,80.99%,0.154,85.56%,0.117,0.654,92.66%,0.048,95.72%,0.028,0.859,0.58%,0.854,0.58%,0.854,"NC(CO)(CO)CO [Tris, 2-amino-2-hydroxymethyl-1,3-propanediol]"
0.861,0.34%,0.858,1.05%,0.852,0.634,91.80%,0.052,95.43%,0.029,0.856,0.47%,0.852,0.23%,0.854,Phosphate

Compound,"Time 0 Min (optical density, 450nm) [1]",Percent Change 5 Min [1],"Time 5 Min (optical density, 450nm) [1]",Percent Change 10 Min [1],"Time 10 Min (optical density, 450nm) [1]","Time 0 Min (optical density, 450nm) [2]",Percent Change 5 Min (lysozyme/no heat),"Time 5 Min (optical density, 450nm) (lysozyme/no heat)",Percent Change 10 Min (lysozyme/no heat),"Time 10 Min (optical density, 450nm) (lysozyme/no heat)","Time 0 Min (optical density, 450nm) (no lysozyme)",Percent Change 5 Min (no lysozyme),"Time 5 Min (optical density, 450nm) (no lysozyme)",Percent Change 10 Min (no lysozyme),"Time 10 Min (optical density, 450nm) (no lysozyme)"
Borate,0.872,21.90%,0.681,55.28%,0.390,0.619,91.44%,0.053,94.51%,0.034,0.853,0.00%,0.853,−0.12%,0.854

# From patent publication US20030153475A1, “Composition for treating contact lenses” (priority 2001, published 2003)
